Test results published in US9980943B2, “Methods of treating muscular dystrophy” (BOARD OF REGENTS OF THE NEVADA SYSTEM OF HIGHER EDUCATION, …, priority 2013, dated 2018).

Assays:
Type in all cases: cell-based, mouse
[1] = tested on: α7 integrin (LacZ reporter in α7βgal+/− myoblasts); test: Myoblast α7+/LacZ integrin FDG assay (Burkin assay in myoblasts, 96-well); conditions: α7+/LacZ myoblasts, 96-well
[2] = tested on: α7 integrin (LacZ reporter in α7+/LacZ myotubes); test: Myotube α7 integrin FDG assay (Burkin assay in myotubes, 96-well); conditions: myotubes
[3] = tested on: β-galactosidase in CMV-LacZ C2C12 myotubes; test: CMV-LacZ secondary screen in C2C12 myotubes (β-Gal stabilizing assay); conditions: for CMV-LACZ in Myotubes (β-galactosidase activity relative to DMSO): CMV-LacZ C2C12 myotubes, 96-well format
Description: In order to determine compounds that acted to stabilize β-gal in myogenic cells, a CMV-LacZ C2C12 cell line was used in a secondary screen. The EGFP gene from the pEGFP (Clontech) vector was replaced by LACZ PCR product with digests of the vector/PCR product performed using EcoRI (NEB) and NotI (NEB) and ligated using T4 DNA Ligase (NEB) following standard procedures to produce the CMV-LACZ vector. The LACZ gene was generated by PCR from the pBK-RSV (Stratagene) vector using primers LACZ EcoRI F- and LACZ NotI R-. The CMV-LACZ vector was then digested with AfIII (NEB) to linearize the construct, which was then transfected in C2C12 myoblasts using Lipofectamine 2000 (Invitrogen) following the manufacturer's instructions. […] Clonal lines were selected and screened for βgal levels using the myoblast FDG assay.
The assays were used the original 96-well format and new dose-response curves for myoblasts (N=3-6 replicates for each data point), myotubes (N=3-6 replicates for data point), and CMV-LacZ secondary assay (N=2 replicates for each data point) using concentrations of 0.5 μM, 1 μM, 5 μM, 10 μM, 20 μM, and 40 μM (Tables 9-16).

[4] = 5 uM, C2C12 CMV-LacZ myotubes, fold relative to DMSO
[5] = 10 uM, C2C12 CMV-LacZ myotubes, fold relative to DMSO
[6] = 20 uM, C2C12 CMV-LacZ myotubes, fold relative to DMSO
[7] = 40 uM, C2C12 CMV-LacZ myotubes, fold relative to DMSO

Row | Structure (SMILES) | Burkin Assay in Myoblasts, value relative to DMSO ([1]; 0.5 uM) | Burkin Assay in Myoblasts, value relative to DMSO ([1]; 1 uM) | Burkin Assay in Myoblasts, value relative to DMSO ([1]; 5 uM) | Burkin Assay in Myoblasts, value relative to DMSO ([1]; 10 uM) | CMV-LACZ in Myotubes, signal relative to DMSO [3, 4] | CMV-LACZ in Myotubes, signal relative to DMSO [3, 5] | CMV-LACZ in Myotubes, signal relative to DMSO [3, 6] | CMV-LACZ in Myotubes, signal relative to DMSO [3, 7] | Burkin Assay in Myoblasts, signal relative to DMSO ([1]; 0.5 uM) | Burkin Assay in Myoblasts, signal relative to DMSO ([1]; 1 uM) | Burkin Assay in Myoblasts, signal relative to DMSO ([1]; 5 uM) | Burkin Assay in Myoblasts, signal relative to DMSO ([1]; 10 uM) | Burkin Assay in Myoblasts, signal relative to DMSO ([1]; 20 uM) | Burkin Assay in Myoblasts, signal relative to DMSO ([1]; 40 uM) | Burkin Assay in Myotubes, α7 integrin LacZ reporter signal relative to DMSO ([2]; 0.5 uM) | Burkin Assay in Myotubes, α7 integrin LacZ reporter signal relative to DMSO ([2]; 1 uM) | Burkin Assay in Myotubes, α7 integrin LacZ reporter signal relative to DMSO ([2]; 5 uM) | Burkin Assay in Myotubes, α7 integrin LacZ reporter signal relative to DMSO ([2]; 10 uM) | Burkin Assay in Myotubes, α7 integrin LacZ reporter signal relative to DMSO ([2]; 20 uM) | Burkin Assay in Myotubes, α7 integrin LacZ reporter signal relative to DMSO ([2]; 40 uM) | further results
1 | COc1ccccc1NC(=O)CCCc1c[nH]c2ccccc12 [MLS000334464-01] | – | – | – | – | – | – | – | – | – | – | – | – | – | – | – | – | – | – | – | – | fold induction at 0.5 µM ([1]; Mus musculus, Myoblast, 48 h, 0.5 uM, read-out: Burkin Assay in Myoblasts, value relative to DMSO): 1.13; fold induction at 1 µM ([1]; Mus musculus, Myoblast, 48 h, 1 uM, read-out: Burkin Assay in Myoblasts, value relative to DMSO): 1.11; fold induction at 5 µM ([1]; Mus musculus, Myoblast, 48 h, 5 uM, read-out: Burkin Assay in Myoblasts, value relative to DMSO): 1.18; fold induction at 10 µM ([1]; Mus musculus, Myoblast, 48 h, 10 uM, read-out: Burkin Assay in Myoblasts, value relative to DMSO): 1.14; fold induction at 20 µM ([1]; Mus musculus, Myoblast, 48 h, 20 uM, read-out: Burkin Assay in Myoblasts, value relative to DMSO): 0.896; fold induction at 40 µM ([1]; Mus musculus, Myoblast, 48 h, 40 uM, read-out: Burkin Assay in Myoblasts, value relative to DMSO): 1.08; fold induction at 0.5 µM ([2]; Mus musculus, Myotube, 0.5 uM, read-out: Burkin Assay in Myotubes (signal relative to DMSO)): 0.986; fold induction at 1 µM ([2]; Mus musculus, Myotube, 1 uM, read-out: Burkin Assay in Myotubes (signal relative to DMSO)): 0.88; fold induction at 5 µM ([2]; Mus musculus, Myotube, 5 uM, read-out: Burkin Assay in Myotubes (signal relative to DMSO)): 1; fold induction at 10 µM ([2]; Mus musculus, Myotube, 10 uM, read-out: Burkin Assay in Myotubes (signal relative to DMSO)): 0.992; fold induction at 20 µM ([2]; Mus musculus, Myotube, 20 uM, read-out: Burkin Assay in Myotubes (signal relative to DMSO)): 1.13; fold induction at 40 µM ([2]; Mus musculus, Myotube, 40 uM, read-out: Burkin Assay in Myotubes (signal relative to DMSO)): 0.666; fold induction at 5 µM ([3]; Mus musculus, C2C12, read-out: CMV-LACZ in Myotubes, signal relative to DMSO, 5 uM, C2C12 CMV-LacZ myotubes, fold relative to DMSO): 1.3; fold induction at 10 µM ([3]; Mus musculus, C2C12, read-out: CMV-LACZ in Myotubes, signal relative to DMSO, 10 uM, C2C12 CMV-LacZ myotubes, fold relative to DMSO): 1.08; fold induction at 20 µM ([3]; Mus musculus, C2C12, read-out: CMV-LACZ in Myotubes, signal relative to DMSO, 20 uM, C2C12 CMV-LacZ myotubes, fold relative to DMSO): 0.988; fold induction at 40 µM ([3]; Mus musculus, C2C12, read-out: CMV-LACZ in Myotubes, signal relative to DMSO, 40 uM, C2C12 CMV-LacZ myotubes, fold relative to DMSO): 0.964
2 | Cc1ccc(-c2csc(Nc3ccc(C(=O)O)cc3)[n+]2Cc2ccccc2)cc1 [MLS000374261-01] | 0.7676 | 0.7758 | 0.7248 | 0.7138 | – | – | – | – | – | – | – | – | – | – | – | – | – | – | – | – | Burkin Assay in Myoblasts, value relative to DMSO ([1]; 20 uM): 0.8376; Burkin Assay in Myoblasts, value relative to DMSO ([1]; 40 uM): 0.8321; Burkin Assay in Myotubes (signal relative to DMSO) ([2]; 0.5 uM): 0.8144; Burkin Assay in Myotubes (signal relative to DMSO) ([2]; 1 uM): 0.8386; Burkin Assay in Myotubes (signal relative to DMSO) ([2]; 5 uM): 1.131; Burkin Assay in Myotubes (signal relative to DMSO) ([2]; 10 uM): 0.9288; Burkin Assay in Myotubes (signal relative to DMSO) ([2]; 20 uM): 0.423; Burkin Assay in Myotubes (signal relative to DMSO) ([2]; 40 uM): 0.449; CMV-LACZ in Myotubes (β-galactosidase activity relative to DMSO) ([3]; 5 uM): 0.8246; CMV-LACZ in Myotubes (β-galactosidase activity relative to DMSO) ([3]; 10 uM): 0.8319; CMV-LACZ in Myotubes (β-galactosidase activity relative to DMSO) ([3]; 20 uM): 0.448; CMV-LACZ in Myotubes (β-galactosidase activity relative to DMSO) ([3]; 40 uM): 0.5036
3 | Cc1ccc(-c2nc(C)sc2CC(=O)OCC(=O)Nc2c(F)cccc2F)cc1 [MLS000388722-01] | 0.93 | 1.1187 | 1.1052 | 1.1175 | 0.9569 | 1.067 | 1.085 | 0.8668 | – | – | – | – | – | – | – | – | – | – | – | – | Burkin Assay in Myoblasts, value relative to DMSO ([1]; 20 uM): 0.9101; Burkin Assay in Myoblasts, value relative to DMSO ([1]; 40 uM): 0.9407; Burkin Assay in Myotubes (signal relative to DMSO) ([2]; 0.5 uM): 0.9225; Burkin Assay in Myotubes (signal relative to DMSO) ([2]; 1 uM): 0.9369; Burkin Assay in Myotubes (signal relative to DMSO) ([2]; 5 uM): 1.032; Burkin Assay in Myotubes (signal relative to DMSO) ([2]; 10 uM): 1.042; Burkin Assay in Myotubes (signal relative to DMSO) ([2]; 20 uM): 0.8001; Burkin Assay in Myotubes (signal relative to DMSO) ([2]; 40 uM): 0.9404
4 | CC(OC(=O)c1cc(-c2cccnc2)nc2ccccc12)C(=O)Nc1ccc2ccccc2c1 (stereo not drawn) [MLS000389484-01] | – | – | – | – | 0.8524 | 0.8387 | 1.116 | 2.781 | 0.7848 | 0.7672 | 0.8524 | 0.8706 | 0.7331 | 0.6132 | 0.9292 | 0.7793 | 0.8638 | 0.6433 | 0.867 | 0.6946 | –
5 | CNC(=O)/C(=C\c1cccc(Oc2ccccc2)c1)NC(=O)c1ccccc1 [MLS000389677-01] | – | – | – | – | 0.8142 | 0.7418 | 1.019 | 0.761 | 0.5325 | 0.8831 | 0.8426 | 0.7976 | 0.6619 | 0.6089 | 1.005 | 0.9156 | 1.109 | 0.9956 | 0.6421 | 0.953 | –
6 | NS(=O)(=O)c1ccc(NC(=O)c2ccc(CNS(=O)(=O)c3cc(C(F)(F)F)ccc3Cl)cc2)cc1 [MLS000393110-01] | – | – | – | – | 1.103 | 0.9673 | 1.0745 | 0.8895 | 0.9045 | 0.9273 | 1.074 | 1.088 | 1.012 | 0.71 | 1.139 | 0.9276 | 1.022 | 0.9816 | 0.6726 | 0.8173 | –
